Series [1] is described as follows: Antiproliferative activity against human SW620 cells after 24 hrs by MTT assay. In kind it is functional, cell-based. Conditions: SW-620, 24 h. Background: Tetrazolium dyes change colour on reduction, which living cells bring about.
For another series, the system named is A549. As to the kind of experiment: Antiproliferative activity against human A549 cells after 24 hrs by MTT assay. It is filed as functional, cell-based. Conditions: A549, 24 h.
The test system of the next series is MCF7. As to the kind of experiment: Antiproliferative activity against human MCF7 cells after 24 hrs by MTT assay. Conditions: MCF7, 24 h. In kind it is functional, cell-based.
Series [2] relates to HepG2. As to the kind of experiment: Antiproliferative activity against human HepG2 cells after 24 hrs by MTT assay. It is filed as functional, cell-based. Conditions: HepG2, 24 h.
Series [3] has as its system HepG2. Kind of series: Antitumor activity against human HepG2 cells xenografted with nude mouse assessed as tumor weight at 5 mg/kg, iv administered every 2 days for 31 days. It is filed as functional. A general note: A xenograft is tissue or cells of one species grown in another, often human tumour cells in immunodeficient mice.
The subject of series [4] is HepG2. Kind of series: Antitumor activity against human HepG2 cells xenografted with nude mouse assessed as tumor volume at 5 mg/kg, iv administered every 2 days for 31 days (reference value: 103.6 +/- 1.77 mm3). It is filed as functional.
The subject of series [5] is HepG2. Kind of series: Upregulation of cyclin B1 in human HepG2 cells at 10 to 100 nM after 24 hrs by Western blot analysis. In kind it is functional, cell-based. A general note: Immunoblotting shows a protein as a band on a membrane.
Series [6] deals with HepG2. As to the kind of experiment: Cell cycle arrest in human HepG2 cells assessed as accumulation at G2/M phase at 500 nM after 24 hrs by propidium iodide staining based flow cytometry (reference value: 19%). In kind it is functional.
Series [7] has as its system HepG2. Kind of series: Antitumor activity against human HepG2 cells xenografted with nude mouse assessed as tumor weight at 10 mg/kg, iv administered every 2 days for 31 days. It is filed as functional.
Series [8] concerns HepG2. As to the kind of experiment: Downregulation of Cdk1 in human HepG2 cells at 10 to 100 nM after 24 hrs by Western blot analysis. In kind it is functional, cell-based.
For series [9], the system named is HepG2. Kind of series: Induction of apoptosis in human HepG2 cells assessed as upregulation of cleaved PARP levels at 0.5 uM after 48 hrs by Western blot analysis. In kind it is functional, cell-based.
Series [10] has as its system HepG2. As to the kind of experiment: Cell cycle arrest in human HepG2 cells assessed as accumulation at G2/M phase at 100 nM after 24 hrs by propidium iodide staining based flow cytometry (reference value: 19%). It is filed as functional.
In series [11] the test system is HepG2. Kind of series: Induction of apoptosis in human HepG2 cells assessed as upregulation of cleaved PARP levels after 48 hrs by Western blot analysis. It is filed as functional, cell-based.
The subject of series [12] is HepG2. As to the kind of experiment: Induction of apoptosis in human HepG2 cells assessed as upregulation of cleaved caspase-3 levels at 0.5 uM after 48 hrs by Western blot analysis. In kind it is functional, cell-based.
For series [13], the system named is HepG2. Kind of series: Binding affinity to alpha tubulin in human HepG2 cells assessed as disruption of microtubule at 1 uM after 24 hrs by immunofluorescence staining based microscopy. It is filed as cell-based.
Series [14] concerns HepG2. Kind of series: Induction of apoptosis in human HepG2 cells assessed as upregulation of cleaved caspase-3 levels after 48 hrs by Western blot analysis. In kind it is functional, cell-based.
The subject of series [15] is Mus musculus. As to the kind of experiment: Toxicity in nude mouse xenografted with human HepG2 cells assessed as weight loss at 10 mg/kg, iv administered every 2 days for 31 days. In kind it is organism-based. Conditions: in vivo.
The subject of series [16] is Mus musculus. Kind of series: Toxicity in nude mouse xenografted with human HepG2 cells assessed as abnormal behavior at 10 mg/kg, iv administered every 2 days for 31 days. Conditions: in vivo. In kind it is organism-based.
Series [17] relates to HepG2. Kind of series: Cell cycle arrest in human HepG2 cells assessed as accumulation at G1 phase at 100 nM after 24 hrs by propidium iodide staining based flow cytometry (reference value: 42%). In kind it is functional.
Series [18] deals with HepG2. Kind of series: Antitumor activity against human HepG2 cells xenografted with nude mouse assessed as tumor volume at 10 mg/kg, iv administered every 2 days for 31 days (reference value: 87.39 +/- 3.529 mm3). It is filed as functional.
For series [19], the system named is HepG2. Kind of series: Cell cycle arrest in human HepG2 cells assessed as accumulation at S phase at 100 nM after 24 hrs by propidium iodide staining based flow cytometry (reference value: 39%). It is filed as functional.
Series [20] has as its system HepG2. As to the kind of experiment: Cell cycle arrest in human HepG2 cells assessed as accumulation at G1 phase at 200 nM after 24 hrs by propidium iodide staining based flow cytometry (reference value: 42%). In kind it is functional.
Series [21] deals with Mus musculus. As to the kind of experiment: Toxicity in nude mouse xenografted with human HepG2 cells assessed as feeding at 10 mg/kg, iv administered every 2 days for 31 days. In kind it is organism-based. Conditions: in vivo.
Series [22] deals with HepG2. As to the kind of experiment: Upregulation of phosphorylated histone H3 levels in human HepG2 cells at 10 to 100 nM after 24 hrs by Western blot analysis. It is filed as functional, cell-based.
For series [23], the system named is HepG2. As to the kind of experiment: Cell cycle arrest in human HepG2 cells assessed as accumulation at S phase at 500 nM after 24 hrs by propidium iodide staining based flow cytometry (reference value: 39%). It is filed as functional.
Series [24] deals with HepG2. As to the kind of experiment: Downregulation of Cdc25C in human HepG2 cells at 10 to 100 nM after 24 hrs by Western blot analysis. In kind it is functional, cell-based.
In series [25] the test system is HepG2. Kind of series: Cell cycle arrest in human HepG2 cells assessed as accumulation at G1 phase at 500 nM after 24 hrs by propidium iodide staining based flow cytometry (reference value: 42%). It is filed as functional.
Series [26] concerns HepG2. As to the kind of experiment: Antitumor activity against human HepG2 cells xenografted with nude mouse assessed as tumor mass change at 10 mg/kg, iv administered every 2 days for 31 days. In kind it is functional.
The test system of series [27] is HepG2. As to the kind of experiment: Cell cycle arrest in human HepG2 cells assessed as accumulation at G2/M phase at 200 nM after 24 hrs by propidium iodide staining based flow cytometry (reference value: 19%). In kind it is functional.
Series [28] deals with HepG2. Kind of series: Cell cycle arrest in human HepG2 cells assessed as accumulation at G2/M phase after 24 hrs by propidium iodide staining based flow cytometry (reference value: 19%). In kind it is functional.
The subject of series [29] is HepG2. Kind of series: Cell cycle arrest in human HepG2 cells assessed as accumulation at S phase at 200 nM after 24 hrs by propidium iodide staining based flow cytometry (reference value: 39%). In kind it is functional.

The source made the active and inactive calls. The calls are words filed in the database; no cut-off is given here. Some results are limits rather than exact numbers.

Experimental findings from ChEMBL document CHEMBL3785046, “Synthesis, in vitro and in vivo evaluation of novel substituted N-(4-(2-(4-benzylpiperazin-1-yl)ethoxy)phenyl)-N-methyl-quinazolin-4-amines as potent antitumor agents” (Bioorg Med Chem Lett, 2016) are described below.

As to `Cc1nc(N(C)c2ccc(OCCN3CCN(Cc4ccc(C(C)(C)C)cc4)CC3)cc2)c2ccccc2n1`, the IC50 (in series [1]; in the series with A549; in the series on MCF7; in the series on HepG2 [2]) was > 10000 nM each time.
Regarding `Cc1nc(N(C)c2ccc(OCCN3CCN(Cc4ccccc4F)CC3)cc2)c2ccccc2n1`, the IC50 stood at 716 nM in series [1], 281 nM in the series on A549, 690 nM in the series with MCF7 and 89 nM with HepG2 [2].
The matching figures for `CN(c1ccc(OCCN2CCN(Cc3ccc(C(C)(C)C)cc3)CC2)cc1)c1nc(Cl)nc2ccccc12`: > 10000 nM, > 10000 nM, > 10000 nM and > 10000 nM.
Take `Cc1nc(N(C)c2ccc(OCCN3CCN(Cc4ccccc4Cl)CC3)cc2)c2ccccc2n1`: the IC50 in [1] worked out at 2920 nM; in the series with A549, 872 nM; in the series with MCF7, 2320 nM; with HepG2 [2], 555 nM.
In the case of `Cc1nc(N(C)c2ccc(OCCN3CCN(Cc4ccc(F)c(F)c4)CC3)cc2)c2ccccc2n1`, the IC50 is 3270 nM in series [1], > 10000 nM in the series with A549, 6120 nM in the series with MCF7 and 6580 nM with HepG2 [2].
For the compound `Cc1nc(N(C)c2ccc(OCCN3CCN(Cc4ccccc4C#N)CC3)cc2)c2ccccc2n1`, the IC50 in [1] came to 883 nM; with A549, 5740 nM; with MCF7, 1010 nM; in the series with HepG2 [2], 890 nM.
The matching figures for `CN(c1ccc(OCCN2CCN(Cc3ccccc3Cl)CC2)cc1)c1nc(Cl)nc2ccccc12`: 980 nM, 371 nM, 1230 nM and 650 nM.
As for `COc1cccc2c1C(=O)c1c(O)c3c(c(O)c1C2=O)C[C@@](O)(C(=O)CO)C[C@@H]3O[C@H]1C[C@H](N)[C@H](O)[C@H](C)O1.Cl` [DOXORUBICIN HYDROCHLORIDE], the Activity in the series with HepG2 [3] was 0.188 g; in the series with HepG2 [4] it was 238.7 mm3.
In the case of `CN(c1ccc(OCCN2CCN(Cc3ccccc3F)CC2)cc1)c1nc(Cl)nc2ccccc12`, the result in the series on HepG2 [5], with HepG2 [8], in the series on HepG2 [9], in the series on HepG2 [12], in the series with HepG2 [13] and in the series on HepG2 [22] was Active. For the same compound, the result in the series on HepG2 [24] was Active. For the same compound, the Activity in the series with HepG2 [6] was 67%; with HepG2 [7], 0.217 g; with HepG2 [10] it was 25%; in the series with HepG2 [11], “Dose-dependent effect”; in the series on HepG2 [14], “Dose-dependent effect”; with Mus musculus [15] it was “Non-toxic”. Besides, the Activity result is recorded as “Non-toxic” in the series on Mus musculus [16]; 38% with HepG2 [17]; 259.78 mm3 with HepG2 [18]; 37% in the series on HepG2 [19]; 30% in the series with HepG2 [20]; “Non-toxic” in the series on Mus musculus [21]. For the same compound, the Activity in the series on HepG2 [23] is 23%; in the series on HepG2 [25], 10%; with HepG2 [26], 78.69%; with HepG2 [27], 44%; in the series on HepG2 [28], “Dose-dependent effect”; with HepG2 [29], 26%. Further, the IC50 in series [1] is 52 nM; with A549, 147 nM; in the series with MCF7, 99 nM; in the series on HepG2 [2] it was 29 nM.
`Cc1nc(N(C)c2ccc(OCCN3CCN(Cc4ccccc4Br)CC3)cc2)c2ccccc2n1`: the IC50 in series [1] is 1230 nM; in the series on A549 it was > 10000 nM; in the series with MCF7 it was 2160 nM; with HepG2 [2] it was 441 nM.
The matching figures for `CN(c1ccc(OCCN2CCN(Cc3ccc(F)c(F)c3)CC2)cc1)c1nc(Cl)nc2ccccc12`: 892 nM, 1560 nM, 2340 nM and 1310 nM.
As to `CN(c1ccc(OCCN2CCN(Cc3c(F)cccc3F)CC2)cc1)c1nc(Cl)nc2ccccc12`, the IC50 in series [1] amounted to 3210 nM; in the series with A549, 6350 nM; in the series on MCF7 it was 1980 nM; in the series on HepG2 [2] it was 1450 nM.

As a reminder, the IC50 is the concentration that gives 50% inhibition.
